Patent US20260335398A1, “METHODS FOR TREATING PANCREATIC CANCER WITH A COMBINATION OF DES-METHYL PATEAMINE A AND A CLASS I HDAC INHIBITOR” (Baylor University, priority 2023, published 2026)

Key:
MIA PaCa-2 xenograft = MIA PaCa-2 xenograft model of PDAC, tumor growth (FIG. 2A); type: in vivo, athymic nude mice; conditions: IP; romidepsin 0.75 mg/kg, DMPatA 0.075 mg/kg; once every four days 2 weeks, then every seven days 5-6 weeks
Excerpt: FIGS. 2A and 2B illustrate the results of a MIA PaCa-2 xenograft model of PDAC in male athymic nude mice. FIG. 2A compares tumor growth (mm^3) in mice treated with the indicated concentrations of combination, romidepsin and DMPatA using IP route and vehicles described in the materials and methods section below. FIG. 2B compares body weight (g) of mice treated with the combination and single agents following treatment. FIGS. 2C and 2D compare quantification of H3K9ac and c-MYC antibodies. Frozen sections from MIA PaCa-2 xenograft tumor tissues were subjected to immunohistochemical analysis using antibodies against H3K9ac, and c-MYC. Fluorescence images were captured using fluorescent microscopy and the fluorescent signal from H3K9ac and c-MYC antibodies were quantified. To quantify fluorescence intensity at least 500 cells per condition were measured for each antibody at 40× magnification. The median of the signal intensity is shown. Statistical significance was determined by one-way ANOVA using Tukey multiple comparisons test, ****p value<0.0001.
Animal studies were performed according to Institutional Animal Care and Use Committee (IACUC) protocol number AC-AABD2601. Following the establishment of initial dose levels for individual drugs, efficacy of the combination and single agents in a MIA PaCa-2 xenograft model was assessed at a tolerable dose and schedule. […]

MIA PaCa-2 cells = experiment: Cellular acetyl-CoA levels by LC-MS (FIG. 8D); type: cell-based; conditions: MIA PaCa-2, total 18 h
Protocol: FIG. 8D compares cellular acetyl-CoA levels measured in MIA PaCa-2 cells using LC-MS following treatment of cells with the combination or with single agents as mentioned in FIG. 8A. At least three biological replicate experiments were carried out. Statistical significance was determined by two-way ANOVA, ****p value<0.0001, ***p value<0.0004.
Five million cells were seeded in 150 mm cell culture dishes. Cells were treated with combination or single agents for a total of 18 h (6-+12-hours). Following treatment cells were harvested on ice, washed, and scraped out under liquid nitrogen. Prior to extraction an aliquot of the cell pellet was collected and subjected to protein quantification.
For Acetyl-CoA extraction, a 100 μL aliquot of the thawed pellet was spiked with ^13C2-acetyl-CoA as an internal standard, extracted with 400 μL of methanol, vortexed, and centrifuged at […] for 5 minutes at 4 °C. The methanol supernatant (400 μL) was then dried under nitrogen at 35 °C and reconstituted in 100 μL of 10 mM ammonium bicarbonate (pH 9.5) for LC/MS analysis. Calibration curve standards were similarly prepared as the cell pellets. Acetyl-CoA quantification by LC/MS was performed on an Agilent 1290 Infinity UHPLC/6495 triple quadrupole mass spectrometer, using multiple reaction monitoring. […]

C/C=C1\NC(=O)[C@H]2CSSCC/C=C/[C@H](CC(=O)N[C@H](C(C)C)C(=O)N2)OC(=O)[C@H](C(C)C)NC1=O [romidepsin]
tumor volume (MIA PaCa-2 xenograft): regression in tumor volume | cellular acetyl-CoA levels (MIA PaCa-2 cells): significant reduction
